Data as given in patent US20230364118A1, “RIBITOL TREATMENT” (priority 2020, published 2023).
Several values for one entry are separate records, joined by “and”; a condition that tells them apart may be missing. Equal values may be shown once. Read-outs that look alike come from different tables or passages of the source.

Tests used:
[1] = Functional observational battery (FOB)
Protocol: In this GLP study, the potential effects of ribitol on the CNS were evaluated in CD-1 mice utilizing the FOB. Male mice were randomly assigned to 4 groups of 8 and were administered a single oral dose of 0 (vehicle, purified water), 0.5, 1.0, or 2.0 g/kg ribitol. The FOB tests were conducted pre dose, and at 0.5, 1, 2, 4, and 24 hours post dose.

[2] = male, Bama, minipig, in vivo, 24 h
Protocol: Minipigs received 0 (vehicle, purified water), 0.3, 1.0, or 2.0 g/kg of ribitol in a Latinsquare design on Days 1, 12, 17, and 25, respectively. […] Body weights were measured at baseline and on each dosing day. On each dosing occasion, ECG waveforms, heart rate, and blood pressure data were recorded from at least 2 hours prior to dose (to establish baseline values) to approximately 24 hours post-dose. ECG tracings of a minimum of 30 seconds duration were obtained from all minipigs twice prior to each dose (at least 30 minutes apart) and at 0.5, 2, 4, 8, 12, and 24 hours post dose.

[3] = 28-day oral GLP toxicity study with 14-day recovery; conditions: minipig
Protocol: The purpose of this GLP study was to assess the potential toxicity, reversibility, persistence, or delayed effects of ribitol in minipigs following 28 days of BID oral gavage dosing with a 14 day recovery period. In addition, the plasma TK profile of ribitol was evaluated on Days 1 and 28. Four Bama minipigs/sex/group were administered 0 (vehicle control, purified water), 0.1, 0.3, or 1.0 g/kg/dose ribitol by oral gavage BID (0.2, 0.6, 2.0 g/kg/day; 6 hours apart) for 28 days. In addition, 2 minipigs/sex/group were treated for 28 days with either vehicle (water) or 1.0 g/kg/dose ribitol BID (2.0 g/kg/day) followed by 14-day treatment-free recovery period. In-life assessments included mortality, clinical signs including detailed clinical observations pre-test and once weekly during the dosing and recovery phase, body weight, food consumption, ophthalmology, electrocardiography, and clinical pathology (hematology, coagulation, serum chemistry, and urinalysis). Terminal endpoints included macroscopic pathology, organ weights and histopathology. Blood was taken for plasma TK on Days 1 and 28.

Compound: OC[C@@H](O)[C@@H](O)[C@@H](O)CO [ribitol, (2R,3s,4S)-Pentane-1,2,3,4,5-pentol]
- treatment-related effects on FOB parameters ([1]; 0.5, 1.0, 2.0 g/kg, 0.5-24 h post dose): no treatment-related effects
- safety margin for proposed clinical starting dose ([1]; male, CD-1, mouse, in vivo, 24 h): 19 fold
- NOEL, CNS effects (FOB) ([1]; single oral dose, male, highest dose tested): 2000 mg/kg
- NOEL above efficacious dose of 0.5 g/kg in FKRP mutant mouse models [2]: approximately 4 fold
- safety margin for proposed clinical starting dose [2]: 227 fold
- NOAEL at 28 days ([3]; both, Bama, in vivo, po): 2000 mg/kg/day
- NOAEL ([3]; 28 days oral, both sexes): 1 g/kg/dose BID and 1.0 g/kg/dose BID
